From patent US20100267561A1, “HERBICIDAL PYRIDAZINONE DERIVATIVES” (priority 2007, published 2010)

Tests used:
Assay in all cases: Test B pre-/postemergence plant response
Type in all cases: in vivo
[1] = test system: surinam grass (Brachiaria decumbens)
In short: (§1)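 Visual scoring from 0 (no effect) to 100 (complete control) against untreated controls was done 13 to 15 days after greenhouse treatment. Chemicals were formulated in a surfactant-containing non-phytotoxic solvent and applied to soil preemergence or to 1- to 4-leaf (2-18 cm) plants postemergence.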

[2] = test system: eastern black (E.B.) nightshade (Solanum ptycanthum); conditions: Preemergence
In short: as §1

[3] = test system: large crabgrass (Digitaria sanguinalis)
In short: as §1

[4] = test system: lambsquarters (Chenopodium album)
In short: as §1

[5] = test system: green foxtail (Setaria viridis)
In short: as §1

[6] = test system: goosegrass (Eleusine indica)
In short: as §1

[7] = test system: wheat (Triticum aestivum)
In short: as §1

[8] = test system: common (oilseed) sunflower (Helianthus annuus); conditions: Preemergence
In short: as §1

soybean (Glycine max) = test system: soybean (Glycine max)
In short: as §1

kochia (Kochia scoparia) = test system: kochia (Kochia scoparia)
In short: as §1

[9] = test system: common ragweed (Ambrosia elation)
In short: as §1

wild oat (Avena fatua) = test system: wild oat (Avena fatua)
In short: as §1

[10] = test system: morningglory (Ipomoea coccinea)
In short: as §1

[11] = test system: blackgrass (Alopecurus myosuroides); conditions: for Blackgrass plant response rating: preemergence, 0-100 scale
In short: as §1

[12] = Postemergence, 31 g ai/ha, scale 0 to 100, 0 no effect, 100 complete control
[13] = Postemergence, 62 g ai/ha, scale 0 to 100
[14] = Postemergence, 125 g ai/ha, scale 0 to 100
[15] = Postemergence, 250 g ai/ha, scale 0 to 100
[16] = Preemergence, 31 g ai/ha, 0 to 100 scale, 0 no effect, 100 complete control
[17] = Preemergence, 62 g ai/ha, scale 0 to 100
[18] = Preemergence, 125 g ai/ha, scale 0 to 100
[19] = Preemergence, 250 g ai/ha, scale 0 to 100
[20] = 31 g ai/ha, 0 to 100 scale, 0 no effect, 100 complete control

Cc1nn(C)c(=O)c(-n2nc(-c3ccc(Cl)cc3)cc2C)c1O [Compound 15]
Plant response rating, Surinam Grass [1, 12]: 100 | Plant response rating, Surinam Grass [1, 13]: 100 | Plant response rating, Surinam Grass [1, 14]: 100 | Plant response rating, Surinam Grass [1, 15]: 100 | Plant response rating, Surinam Grass [1, 16]: 100 | Plant response rating, Surinam Grass [1, 17]: 100 | Plant response rating, Surinam Grass [1, 18]: 100 | Plant response rating, Surinam Grass [1, 19]: 100 | Plant response rating, Nightshade, E. B. [2, 20]: 0 | Plant response rating, Nightshade, E. B. ([2]; 62 g ai/ha, scale 0 to 100): 0 | Plant response rating, Nightshade, E. B. ([2]; 125 g ai/ha, scale 0 to 100): 0 | Plant response rating, Nightshade, E. B. ([2]; 250 g ai/ha, scale 0 to 100): 0 | Plant response rating, Crabgrass, Large [3, 12]: 90 | Plant response rating, Crabgrass, Large [3, 13]: 90 | Plant response rating, Crabgrass, Large [3, 14]: 98 | Plant response rating, Crabgrass, Large [3, 15]: 100 | Plant response rating, Crabgrass, Large [3, 16]: 85 | Plant response rating, Crabgrass, Large [3, 17]: 100 | Plant response rating, Crabgrass, Large [3, 18]: 100 | Plant response rating, Crabgrass, Large [3, 19]: 100 | Plant response rating, Lambsquarters [4, 12]: 0 | Plant response rating, Lambsquarters [4, 13]: 0 | Plant response rating, Lambsquarters [4, 14]: 0 | Plant response rating, Lambsquarters [4, 15]: 0 | Plant response rating, Lambsquarters [4, 16]: 0 | Plant response rating, Lambsquarters [4, 17]: 0 | Plant response rating, Lambsquarters [4, 18]: 0 | Plant response rating, Lambsquarters [4, 19]: 0 | Plant response rating, Foxtail, Green [5, 12]: 95 | Plant response rating, Foxtail, Green [5, 13]: 95 | Plant response rating, Foxtail, Green [5, 14]: 100 | Plant response rating, Foxtail, Green [5, 15]: 100 | Plant response rating, Foxtail, Green [5, 16]: 100 | Plant response rating, Foxtail, Green [5, 17]: 100 | Plant response rating, Foxtail, Green [5, 18]: 100 | Plant response rating, Foxtail, Green [5, 19]: 100 | Plant response rating, Goosegrass [6, 12]: 45 | Plant response rating, Goosegrass [6, 13]: 60 | Plant response rating, Goosegrass [6, 14]: 90 | Plant response rating, Goosegrass [6, 15]: 100 | Plant response rating, Goosegrass [6, 16]: 0 | Plant response rating, Goosegrass [6, 17]: 90 | Plant response rating, Goosegrass [6, 18]: 90 | Plant response rating, Goosegrass [6, 19]: 100 | Plant response rating, Wheat [7, 12]: 5 | Plant response rating, Wheat [7, 13]: 60 | Plant response rating, Wheat [7, 14]: 70 | Plant response rating, Wheat [7, 15]: 85 | Plant response rating, Wheat [7, 16]: 0 | Plant response rating, Wheat [7, 17]: 60 | Plant response rating, Wheat [7, 18]: 60 | Plant response rating, Wheat [7, 19]: 80 | Plant response rating, Sunflower [8, 20]: 0 | Plant response rating, Sunflower ([8]; 62 g ai/ha, scale 0 to 100): 0 | Plant response rating, Sunflower ([8]; 250 g ai/ha, scale 0 to 100): 60 | Plant response rating, Soybean (soybean (Glycine max); [12]): 0 | Plant response rating, Soybean (soybean (Glycine max); [13]): 0 | Plant response rating, Soybean (soybean (Glycine max); [14]): 0 | Plant response rating, Soybean (soybean (Glycine max); [15]): 0 | Plant response rating, Soybean (soybean (Glycine max); [16]): 0 | Plant response rating, Soybean (soybean (Glycine max); [17]): 0 | Plant response rating, Soybean (soybean (Glycine max); [19]): 30 | Plant response rating, Kochia (kochia (Kochia scoparia); [12]): 0 | Plant response rating, Kochia (kochia (Kochia scoparia); [13]): 0 | Plant response rating, Kochia (kochia (Kochia scoparia); [14]): 0 | Plant response rating, Kochia (kochia (Kochia scoparia); [15]): 0 | Plant response rating, Kochia (kochia (Kochia scoparia); [17]): 0 | Plant response rating, Ragweed [9, 12]: 0 | Plant response rating, Ragweed [9, 13]: 0 | Plant response rating, Ragweed [9, 14]: 0 | Plant response rating, Ragweed [9, 15]: 40 | Plant response rating, Ragweed [9, 16]: 0 | Plant response rating, Ragweed [9, 17]: 0 | Plant response rating, Ragweed [9, 18]: 0 | Plant response rating, Ragweed [9, 19]: 0 | Plant response rating, Oat, Wild (wild oat (Avena fatua); [12]): 95 | Plant response rating, Oat, Wild (wild oat (Avena fatua); [13]): 98 | Plant response rating, Oat, Wild (wild oat (Avena fatua); [14]): 98 | Plant response rating, Oat, Wild (wild oat (Avena fatua); [15]): 100 | Plant response rating, Oat, Wild (wild oat (Avena fatua); [16]): 10 | Plant response rating, Oat, Wild (wild oat (Avena fatua); [17]): 70 | Plant response rating, Oat, Wild (wild oat (Avena fatua); [18]): 80 | Plant response rating, Oat, Wild (wild oat (Avena fatua); [19]): 85 | Plant response rating, Morningglory [10, 12]: 0 | Plant response rating, Morningglory [10, 13]: 0 | Plant response rating, Morningglory [10, 14]: 0 | Plant response rating, Morningglory [10, 15]: 0 | Plant response rating, Morningglory [10, 16]: 0 | Plant response rating, Morningglory [10, 18]: 0 | Blackgrass plant response rating ([11]; 250 g ai/ha): 100 | Plant response rating, Blackgrass [11, 12]: 90 | Plant response rating, Blackgrass [11, 13]: 95 | Plant response rating, Blackgrass [11, 14]: 95 | Plant response rating, Blackgrass [11, 15]: 98 | Plant response rating, Blackgrass [11, 16]: 100 | Plant response rating, Blackgrass [11, 17]: 100 | Plant response rating, Blackgrass [11, 18]: 100

CCc1cc(-c2ccc(C(F)(F)F)cc2)nn1-c1c(O)c(C)nn(C)c1=O [Compound 16]
Plant response rating, Surinam Grass [1, 12]: 90 | Plant response rating, Surinam Grass [1, 13]: 100 | Plant response rating, Surinam Grass [1, 14]: 100 | Plant response rating, Surinam Grass [1, 15]: 100 | Plant response rating, Surinam Grass [1, 16]: 45 | Plant response rating, Surinam Grass [1, 17]: 55 | Plant response rating, Surinam Grass [1, 18]: 95 | Plant response rating, Surinam Grass [1, 19]: 100 | Plant response rating, Nightshade, E. B. [2, 20]: 0 | Plant response rating, Nightshade, E. B. ([2]; 62 g ai/ha, scale 0 to 100): 0 | Plant response rating, Nightshade, E. B. ([2]; 125 g ai/ha, scale 0 to 100): 0 | Plant response rating, Nightshade, E. B. ([2]; 250 g ai/ha, scale 0 to 100): 0 | Plant response rating, Crabgrass, Large [3, 12]: 95 | Plant response rating, Crabgrass, Large [3, 13]: 95 | Plant response rating, Crabgrass, Large [3, 14]: 100 | Plant response rating, Crabgrass, Large [3, 15]: 100 | Plant response rating, Crabgrass, Large [3, 16]: 0 | Plant response rating, Crabgrass, Large [3, 17]: 0 | Plant response rating, Crabgrass, Large [3, 18]: 20 | Plant response rating, Crabgrass, Large [3, 19]: 40 | Plant response rating, Lambsquarters [4, 12]: 0 | Plant response rating, Lambsquarters [4, 13]: 0 | Plant response rating, Lambsquarters [4, 14]: 0 | Plant response rating, Lambsquarters [4, 15]: 0 | Plant response rating, Foxtail, Green [5, 12]: 95 | Plant response rating, Foxtail, Green [5, 13]: 98 | Plant response rating, Foxtail, Green [5, 14]: 100 | Plant response rating, Foxtail, Green [5, 15]: 100 | Plant response rating, Foxtail, Green [5, 16]: 100 | Plant response rating, Foxtail, Green [5, 17]: 100 | Plant response rating, Foxtail, Green [5, 18]: 100 | Plant response rating, Foxtail, Green [5, 19]: 100 | Plant response rating, Goosegrass [6, 12]: 60 | Plant response rating, Goosegrass [6, 13]: 65 | Plant response rating, Goosegrass [6, 14]: 75 | Plant response rating, Goosegrass [6, 15]: 80 | Plant response rating, Goosegrass [6, 16]: 0 | Plant response rating, Goosegrass [6, 17]: 0 | Plant response rating, Goosegrass [6, 18]: 50 | Plant response rating, Goosegrass [6, 19]: 60 | Plant response rating, Wheat [7, 12]: 95 | Plant response rating, Wheat [7, 13]: 98 | Plant response rating, Wheat [7, 14]: 100 | Plant response rating, Wheat [7, 15]: 100 | Plant response rating, Wheat [7, 16]: 15 | Plant response rating, Wheat [7, 17]: 90 | Plant response rating, Wheat [7, 18]: 98 | Plant response rating, Wheat [7, 19]: 100 | Plant response rating, Sunflower [8, 20]: 0 | Plant response rating, Sunflower ([8]; 62 g ai/ha, scale 0 to 100): 0 | Plant response rating, Sunflower ([8]; 125 g ai/ha, scale 0 to 100): 0 | Plant response rating, Sunflower ([8]; 250 g ai/ha, scale 0 to 100): 0 | Plant response rating, Soybean (soybean (Glycine max); [12]): 0 | Plant response rating, Soybean (soybean (Glycine max); [13]): 0 | Plant response rating, Soybean (soybean (Glycine max); [14]): 0 | Plant response rating, Soybean (soybean (Glycine max); [15]): 0 | Plant response rating, Soybean (soybean (Glycine max); [19]): 0 | Plant response rating, Kochia (kochia (Kochia scoparia); [12]): 0 | Plant response rating, Kochia (kochia (Kochia scoparia); [13]): 65 | Plant response rating, Kochia (kochia (Kochia scoparia); [14]): 98 | Plant response rating, Kochia (kochia (Kochia scoparia); [15]): 100 | Plant response rating, Ragweed [9, 12]: 0 | Plant response rating, Ragweed [9, 13]: 0 | Plant response rating, Ragweed [9, 14]: 0 | Plant response rating, Ragweed [9, 15]: 0 | Plant response rating, Ragweed [9, 16]: 0 | Plant response rating, Ragweed [9, 17]: 0 | Plant response rating, Ragweed [9, 18]: 0 | Plant response rating, Ragweed [9, 19]: 0 | Plant response rating, Oat, Wild (wild oat (Avena fatua); [12]): 95 | Plant response rating, Oat, Wild (wild oat (Avena fatua); [13]): 100 | Plant response rating, Oat, Wild (wild oat (Avena fatua); [14]): 100 | Plant response rating, Oat, Wild (wild oat (Avena fatua); [15]): 100 | Plant response rating, Oat, Wild (wild oat (Avena fatua); [16]): 90 | Plant response rating, Oat, Wild (wild oat (Avena fatua); [17]): 95 | Plant response rating, Oat, Wild (wild oat (Avena fatua); [18]): 98 | Plant response rating, Oat, Wild (wild oat (Avena fatua); [19]): 100 | Plant response rating, Morningglory [10, 12]: 0 | Plant response rating, Morningglory [10, 13]: 0 | Plant response rating, Morningglory [10, 14]: 0 | Plant response rating, Morningglory [10, 15]: 0 | Plant response rating, Morningglory [10, 16]: 0 | Plant response rating, Morningglory [10, 17]: 0 | Plant response rating, Morningglory [10, 18]: 0 | Plant response rating, Morningglory [10, 19]: 0 | Blackgrass plant response rating ([11]; 250 g ai/ha): 100 | Plant response rating, Blackgrass [11, 12]: 98 | Plant response rating, Blackgrass [11, 13]: 100 | Plant response rating, Blackgrass [11, 14]: 100 | Plant response rating, Blackgrass [11, 15]: 100 | Plant response rating, Blackgrass [11, 16]: 100 | Plant response rating, Blackgrass [11, 17]: 100 | Plant response rating, Blackgrass [11, 18]: 100
